{"source": "patent US10201590B2", "about": "“Treatment of ocular disorders with anti-connexin proteins and mimetics” (CoDa Therapeutics, Inc., priority 2005, dated 2019)", "key": {"[1]": {"target": "T1, connexin hemichannels (Rattus norvegicus, UniProt P08050)", "T1 construct": "leads to the expression of connexin hemichannels; from tissue; host or cells: rat (Wistar p7) spinal cord, 500 micron slices in culture", "T1 sequence (P08050 2-382)": "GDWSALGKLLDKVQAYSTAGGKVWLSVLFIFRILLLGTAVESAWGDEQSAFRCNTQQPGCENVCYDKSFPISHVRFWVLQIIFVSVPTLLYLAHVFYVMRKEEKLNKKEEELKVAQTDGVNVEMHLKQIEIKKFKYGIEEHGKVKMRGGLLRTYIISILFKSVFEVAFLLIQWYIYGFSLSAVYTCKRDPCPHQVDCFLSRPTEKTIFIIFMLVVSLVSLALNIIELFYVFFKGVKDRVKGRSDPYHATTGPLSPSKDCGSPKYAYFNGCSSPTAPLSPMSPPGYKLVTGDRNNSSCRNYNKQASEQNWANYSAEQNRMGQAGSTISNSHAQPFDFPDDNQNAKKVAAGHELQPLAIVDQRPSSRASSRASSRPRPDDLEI", "assay": "Blockage of dye (Lucifer Yellow) uptake by cells in spinal cord slices", "type": "cell-based", "conditions": "500 micromolar peptide, slices incubated four hours, then Lucifer Yellow 30 minutes", "method": "Two functional tests were carried out using peptides. These functional test were (i) blockage of dye (Lucifer Yellow) uptake by cells in spinal cord slices, and (ii) prevention of oedema in spinal cord segments (using connexin 43 specific antisense as a positive control). All peptides used were synthesised by Sigma-Genosys (Australia).\nLucifer Yellow is a small water soluble, fixable, dye able to pass from cell to cell via gap junction channels, but not across the cell membrane. The addition of Lucifer Yellow to the extracellular medium makes it is possible to check for the presence of open gap junction hemichannels. The dye will appear in the cytoplasm of cells which are expressing open channels.\nWistar p7 rats were anesthetized with carbon dioxide and immediately decapitated. The spinal cord was excised and transferred to cold Hank's balanced salt solution (HBSS) at pH 7.4. Excess branch nerves and ligaments were removed and the cord transferred to a manual tissue chopper and a series of 500 micron thick slices cut. The damage caused by the slicing induces connexin 43 upregulation through the entire slice (exacerbated by the gap junction mediated bystander effect), and leads to the expression of connexin hemichannels. Slices were placed onto 3 cm diameter Millipore inserts in 24 well plates and cultured in the presence of mimetic peptides in the media. The final concentration for all 9 peptides tested was 500 micromolar. Controls were; no peptide added, or with 1% ethanol or 1% DMSO added as some peptides were re-dissolved in these compounds (peptides were received lyophilised). Some slices were also treated at this time with connexin 43 specific antisense oligodeoxynucleotides in 30% Pluronic F-127 gel or with gel only, as control experiments.\nSlices were incubated for four hours at 37 degrees C., and then 2.5 mg per ml Lucifer Yellow was added to each well for 30 minutes (in the dark). The tissues were then rinsed twice in PBS, with three further 10 minute washes, and the slices fixed with 4% paraformaldehyde. They were then viewed using a Leica TCS4D laser scanning confocal microscope to assess dye uptake into cells, or not."}, "[2]": {"system": "spinal cord segments", "assay": "Prevention of oedema (swelling) in cultured spinal cord segments", "type": "cell-based, rat", "conditions": "for % swelling of cord segments: 500 micromolar peptide, 24 hours, control segments 21-23%", "method": "FIGS. 1A and 1B show rat spinal cord segments 24 hours after placing into organotypic culture. In the control cord (FIG. 1A) significant swelling is observed at the cut ends (dotted lines mark the original cuts).\nIn both cases, the oedema can be blocked using antisense oligodexoynucleotides (ODNs) which prevent translation of the gap junction protein Connexin 43 (FIG. 1B).\nThe system described in Example 1 was used to examine the effects of the peptides VDCFLSRPTEKT (SEQ ID NO:35) and SRPTEKTIFII (SEQ ID NO:36) on cultured spinal cord segments to test their ability to block swelling.\nThe peptide QQPGCENVCYDK (SEQ ID NO:39) was used a negative control because it allowed dye uptake in the slice cultures described above, and was thus believed to not be able to block oedema in the segments. DMSO was again used as an additional control.\n5 mm long spinal cord segments were placed in separate wells of a 24 well plate in HBSS. The segments were held to the bottom of the well using a small drop of Superglue. The HBSS was removed and 500 micromolar peptide (final concentration) added to media (no peptide for media alone or DMSO controls). The plates were incubated for 24 hours, the media removed and the tissue fixed with Bouin's fixative for 24 hours. Analysis involved photographing cord segments from above, with Image J used to calculate the total area of the cord segment compared with the area of swelling at the cut ends of the segments. Swelling (oedema) was calculated as (cultured area−original area divided by original area) to give % swelling. Single factor Analysis of Variance was used to determine statistical significance, with cut-off level for significance at p=0.05.\nIn this case a dose response was determined with final concentration of peptides used at 5, 10, 50 250 and 500 micromolar."}, "[3]": {"system": "glial fibrillary acidic protein (GFAP) expression", "assay": "Immunohistochemical analysis of GFAP (astrocytosis) in spinal cord segments", "type": "cell-based, rat", "conditions": "for Area of GFAP label: 24 hours, control 2450", "method": "Table 7: Areas of GFAP label in images taken in spinal cord 24 hours after slicing. Control cords have high levels of GFAP indicating an inflammatory response and greater bystander effect than the treated segments."}, "[4]": {"system": "connexin 43 hemichannels", "assay": "Perinatal sheep model of cerebral ischaemia, i.c.v. infusion of mimetic peptide", "type": "in vivo", "method": "The infusion in these animals was continued until 72 h after ischaemia. […] Seizures resolved by approximately 48 h.\nDosages of about 5 μmol/kg brain, 50 μmol/kg and 250 μmol/kg brain weight are also possible. For intravenous (systemic delivery) the effect of log-order increases in plasma concentrations can be used to determine an appropriate dose, starting with loading doses to achieve 0.5 μmol/L (mean fetal blood volume is approximately 350 ml in our perinetal sheep at this age), then 5, 10, 50, 250, 500 and 5000 μM.\nA Romney-Suffolk cross fetal sheep was instrumented between 117 to 124 days of gestation (0.85 term) under general anaesthesia as described elsewhere in detail (Gerrits et al, Pediatr Res 57(3):342-6, (2005); Guan et al., Neuroscience 95(3):831-839, (1999); Guan et al., J Cereb Blood Flow Metab 21(5):493-502, (2001); Gunn et al., J Clin Invest 99(2):248-256, (1997), Gunn et al., Pediatrics 102(5):1098-1106, (1998), Gunn et al., Pediatr Res 46(3):274-280, (1999); Roelfsema et al., J Cereb Blood Flow Metab 24(8):877-886, (2004)). Instrumentation included brachial artery and vein catheters, EKG electrodes, an inflatable occluder around a fetal carotid artery (Gunn et al., 1997; Roelfsema et al., 2004), parietal EEG electrodes 5 and 15 mm anterior, and 10 mm lateral to bregma, a pair of electrodes placed lateral to these to measure cortical impedance (a measure of cytotoxic oedema (Gunn et al., 1997) and a 17-mm-long left i.c.v. cannula 4 mm anterior and 6 mm lateral to bregma. The instrumentation was exteriorised to the maternal flank, uterine and abdominal walls closed, and fetal vascular catheters heparinised (20 IU/ml). The maternal wound was infiltrated with a long acting local anaesthetic bupivacaine (100 mg/20 ml).\nAfter 5 days recovery, fetal cerebral hypoperfusion was induced by a 30 minute period of bilateral carotid artery occlusion (Gunn et al., 1997; Roelfsema et al., 2004; Tan et al., Ann Neurol 32(5):677-682, (1992); Tan et al., Pediatr Res 39(5):791-797, (1996)). […]"}, "[5]": {"conditions": "near-term fetal sheep, i.c.v. infusion from 90 min after 30 min ischaemia until 72 h"}}, "note": "“Also recorded” adds a separate entry of the source.", "data": [{"sequence": "QQPGCENVCYDK [connexin 43 mimetic peptide, E1; used as negative control]", "values": [{"measurement": "dye (Lucifer Yellow) uptake / block of hemichannels", "setting": "[1]", "result": "comparable with control slices; also recorded: did not block hemichannels"}, {"measurement": "% swelling of cord segments", "setting": "[2]", "result": 23, "unit": "%"}]}, {"sequence": "SRPTEKTIFII [connexin 43 mimetic peptide, E2 & M4]", "values": [{"measurement": "dye (Lucifer Yellow) uptake / block of hemichannels", "setting": "[1]", "result": "block hemichannels"}, {"measurement": "dye (Lucifer Yellow) uptake / block of hemichannels", "setting": "[1]; listed as SEQ ID NO: 36", "result": "capable of preventing and/or blocking and/or closing the opening of the hemichannels"}, {"measurement": "blocking of oedema at middle range concentration", "setting": "[2]; 50 micromolar, repeat experiments", "result": "somewhat less effective"}, {"measurement": "% swelling of cord segments", "setting": "[2]", "result": 17, "unit": "%"}, {"measurement": "most effective concentration for blocking of oedema (least oedema)", "setting": "[2]; dose response 5, 10, 50 250 and 500 micromolar, vs media alone p=0.001", "result": 5, "unit": "µM"}, {"measurement": "Area of GFAP label", "setting": "[3]; 5 micromolar", "result": 300, "unit": "square units"}, {"measurement": "Area of GFAP label", "setting": "[3]; 50 micromolar", "result": 950, "unit": "square units"}, {"measurement": "Area of GFAP label", "setting": "[3]; 250 micromolar", "result": 1000, "unit": "square units"}, {"measurement": "Area of GFAP label", "setting": "[3]; 500 micromolar", "result": 750, "unit": "square units"}, {"measurement": "astrocytosis (GFAP expression)", "setting": "[3]; 24 hours in culture", "result": "reduced astrocytosis"}, {"measurement": "most effective concentration at preventing the inflammatory response (GFAP)", "setting": "[3]; 24 hours in culture", "result": 5, "unit": "µM"}, {"measurement": "effect in perinatal sheep experiment", "setting": "[4]; 5 μmol/kg brain weight in 1 ml artificial CSF i.c.v. over one hour, then 1 ml per day for 72 hours", "result": "significant effect"}, {"measurement": "cortical impedance (cell swelling, cytotoxic oedema)", "setting": "[4]; [5]", "result": "markedly delayed and attenuated rise in cerebral impedance"}, {"measurement": "seizures after cerebral ischaemia", "setting": "[4]; [5]", "result": "changed seizures from continuous to a later onset of discrete, separate seizure events"}]}, {"sequence": "VCYDKSFPISHVR [connexin 43 mimetic peptide, E1]", "values": [{"measurement": "dye (Lucifer Yellow) uptake / block of hemichannels", "setting": "[1]", "result": "comparable with control slices"}]}, {"sequence": "SLSAVYTCKRDPCPHQ [connexin 43 mimetic peptide, E2]", "values": [{"measurement": "dye (Lucifer Yellow) uptake / block of hemichannels", "setting": "[1]", "result": "comparable with control slices"}]}, {"sequence": "LLIQWYIGFSL [connexin 43 mimetic peptide, E2]", "values": [{"measurement": "dye (Lucifer Yellow) uptake / block of hemichannels", "setting": "[1]", "result": "comparable with control slices"}]}, {"sequence": "QSAFRCNTQQPG [connexin 43 mimetic peptide, E1]", "values": [{"measurement": "dye (Lucifer Yellow) uptake / block of hemichannels", "setting": "[1]", "result": "comparable with control slices"}]}, {"sequence": "FEVAFLLIQWI [connexin 43 mimetic peptide, M3 & E2]", "values": [{"measurement": "dye (Lucifer Yellow) uptake / block of hemichannels", "setting": "[1]", "result": "comparable with control slices"}]}, {"sequence": "VDCFLSRPTEKT [connexin 43 mimetic peptide, E2]", "values": [{"measurement": "dye (Lucifer Yellow) uptake / block of hemichannels", "setting": "[1]", "result": "block hemichannels"}, {"measurement": "dye (Lucifer Yellow) uptake / block of hemichannels", "setting": "[1]; listed as SEQ ID NO: 35", "result": "capable of preventing and/or blocking and/or closing the opening of the hemichannels"}, {"measurement": "% swelling of cord segments", "setting": "[2]", "result": 15, "unit": "%"}]}, {"sequence": "LGTAVESAWGDEQ [connexin 43 mimetic peptide, M1 & E1]", "values": [{"measurement": "dye (Lucifer Yellow) uptake / block of hemichannels", "setting": "[1]", "result": "comparable with control slices"}]}]}
